Measured values taken from patent publication US20230286973A1, “PROTEIN SECRETION INHIBITORS” (KEZAR LIFE SCIENCES, priority 2020, published 2023).
pEC50, pIC50: −log10 of the molar value. Like-named read-outs stand apart in the source and are kept apart here.

Legend:
[1] = test system: multiple myeloma cell line NCI-H929; test: H929 Cell Viability Assay; format: cell-based, human; details: Homo sapiens, NCI-H929, 48 h, NCI-H929 cells, Celltiter-Glo
In short: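 A 48-hour compound treatment of cells in 10% FBS RPMI medium was followed by luciferase-based viability quantification.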

[2] = Liver Microsome Stability Assay (monkey); details: monkey liver microsomes, with NADPH, 1.0 uM compound
Method: (§1) Stability of a compound was assessed in the presence of liver microsomes from various sources—mouse, rat, monkey and human liver microsomes. 1.0 uM compound, 0.4% DMSO in 0.1 M Potassium Phosphate with 1.0 mg/mL liver microsomes, were incubated at 37° C. with or without 1 mM NADPH. The samples were quenched at 0, and 30 minutes.

[3] = Liver Microsome Stability Assay (mouse); details: mouse liver microsomes, with NADPH, 1.0 uM compound
Method: as §1

[4] = test system: PD1-ss+10aa/Gaussia Luciferase; test: Dox-Induced PD1-ss-Gluc Assay; format: cell-based; details: 24 hr Dox induction, 293FRT/TO cells, read-out: 24 hr Dox Inducible PD1ssGluc 293FRT/TO: Mean IC50
In short: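 Stable Flp-In 293 T-REx cells carried a doxycycline-inducible construct of Gaussia luciferase fused to the PD1 signal sequence plus 10 amino acids. Cells were plated the day before, then treated with compound dilutions in DMSO/media containing doxycycline at 37 °C, 5% CO2.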

[5] = Liver Microsome Stability Assay (rat); details: rat liver microsomes, with NADPH, 1.0 uM compound
Method: as §1

[6] = test system: TNFα-FL/Gaussia Luciferase; test: Dox Induced TNFα-FL-Gluc Assay; format: cell-based; details: for pIC50: 24 hr Dox induction, 293FRT/TO cells, read-out: 24 hr Dox Inducible TNFaFLGluc 293FRT/TO: Mean IC50; for 24 hr Dox Inducible TNFaFLGluc 293FRT/TO: TNF/PD1: ratio of TNFaFLGluc IC50 to PD1ssGluc IC50
In short: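 Hygromycin/blasticidin-selected Flp-In 293 T-REx cells, TNFα-FL/Gaussia luciferase fusion under T-REx control; overnight plating, then compound in DMSO/media with doxycycline at 37 °C, 5% CO2; stereo-undefined structures tested as mixtures.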

[7] = test system: IL-2-FL/Gaussia Luciferase; test: Dox Induced IL2-FL-Gluc Assay; format: cell-based; details: for pIC50: 24 hr Dox induction, 293FRT/TO cells, read-out: 24 hr Dox Inducible IL2FLGluc 293FRT/TO: Mean IC50; for 24 hr Dox Inducible IL2FLGluc 293FRT/TO: IL2/PD1: ratio of IL2FLGluc IC50 to PD1ssGluc IC50
In short: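 A hygromycin- and blasticidin-resistant 293 T-REx clone carrying inducible IL-2–Gaussia luciferase (full-length IL-2, residues 1-153) serves as the cell system. After overnight plating, the cells get test compounds together with doxycycline in DMSO/media and are incubated at 37° C, 5% CO2.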

[8] = Liver Microsome Stability Assay (human); details: human liver microsomes, with NADPH, 1.0 uM compound
Method: as §1

[9] = test system: multiple myeloma cell line U266B1; test: U266 Cell Viability Assay; format: cell-based, human; details: Homo sapiens, U-266, 48 h, U266B1 cells, Celltiter-Glo
In short: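 After growth in serum-supplemented RPMI 1640, cells received serially diluted compound in DMSO/media and were kept 48 hours before a CellTiter-Glo luminescence readout.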

[10] = test system: HER3-ss+4aa/Gaussia Luciferase; test: Dox-Induced Her3-ss-Gluc Assay; format: cell-based; details: 24 hr Dox induction, 293FRT/TO cells, read-out: 24 hr Dox Inducible Her3(ss + 4)Gluc 293FRT/TO: Mean IC50
In short: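 Doxycycline-inducible HER3 signal sequence+4aa/Gaussia luciferase construct, stably integrated in Flp-In 293 T-REx cells; compound dilutions applied with doxycycline at 37° C., 5% CO2.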

[11] = '<=>' given where both are I.A.

Row | Structure (SMILES) | pEC50 [1] | Liver Microsome Stability (Multiple Species): Monkey - % Remaining after 30 min w/NADPH [2] [%] | Liver Microsome Stability (Multiple Species): Mouse - % Remaining after 30 min w/NADPH [3] [%] | pIC50 [4] | Liver Microsome Stability (Multiple Species): Rat - % Remaining after 30 min w/NADPH [5] [%] | pIC50 [6] | 24 hr Dox Inducible TNFaFLGluc 293FRT/TO: TNF/PD1 [6] | pIC50 [7] | 24 hr Dox Inducible IL2FLGluc 293FRT/TO: IL2/PD1 [7] | Liver Microsome Stability (Multiple Species): Human - % Remaining after 30 min w/NADPH [8] [%] | pEC50 [9] | pIC50 [10] | pIC50 ([4]; mean) | pIC50 ([6]; mean) | 24 hr Dox Inducible TNFaFLGluc 293FRT/TO: TNF/PD1 [6, 11] | pIC50 ([7]; mean) | 24 hr Dox Inducible IL2FLGluc 293FRT/TO: IL2/PD1 [7, 11] | pIC50 ([10]; mean)
1 | CNC(=O)c1ccc(N2CCC[C@@H]2c2csc(NC(=O)c3cccn3Cc3ccncc3)n2)cc1 [Compound A17, (R)-N-(4-(1-(4-(methylcarbamoyl)phenyl)pyrrolidin-2-yl)thiazol-2-yl)-1-(pyridin-4-ylmethyl)-1H-pyrrole-2-carboxamide] | 6.79 | 0.22 | 2.94 | 8.17 | 0.38 | 6.75 | 26.6 | 7.78 | 2.5 | 0.32 | < 4.60 | 7.94 |  |  |  |  |  | 
2 | N#Cc1cnccc1Cn1cccc1C(=O)Nc1nc([C@H]2CCCN2c2ccccc2)cs1 [Compound E59, (R)-1-((3-cyanopyridin-4-yl)methyl)-N-(4-(1-phenylpyrrolidin-2-yl)thiazol-2-yl)-1H-pyrrole-2-carboxamide] | 4.82 | 0.56 | 0.39 |  | 0.83 |  |  |  |  | 0.22 | < 4.60 |  | 6.39 | 4.90 | 30.9 | 6.03 | 2.3 | 6.24
3 | NC(=O)c1ccc(N2CCC[C@@H]2c2csc(NC(=O)c3cccn3Cc3ccnc(F)c3)n2)cc1 [Compound A65, (R)-N-(4-(1-(4-carbamoylphenyl)pyrrolidin-2-yl)thiazol-2-yl)-1-((2-fluoropyridin-4-yl)methyl)-1H-pyrrole-2-carboxamide] | 7.09 | 0.35 | 7.68 | 8.68 | 1.1 | 7.18 | 31 | 8.10 | 3.8 | 22.1 | < 4.60 | 8.19 |  |  |  |  |  | 
4 | O=C(Nc1nc([C@H]2CCCN2c2ccccc2)cs1)c1cccn1CCc1cccnc1 [Compound E21, (R)-N-(4-(1-phenylpyrrolidin-2-yl)thiazol-2-yl)-1-(2-(pyridin-3-yl)ethyl)-1H-pyrrole-2-carboxamide] | 4.81 | 0.23 | 0.02 |  | 0.1 |  |  |  |  | 0.8 | 4.63 |  | 5.19 | < 4.60 | >3.86 | < 4.60 | >3.9 | < 4.60
5 | CC(=O)N1CCCC(c2ccc(N3CCC[C@@H]3c3csc(NC(=O)c4cccn4Cc4ccncc4)n3)cc2)C1 (stereo partly drawn) [Compound A63, N-(4-((2R)-1-(4-(1-acetylpiperidin-3-yl)phenyl)pyrrolidin-2-yl)thiazol-2-yl)-1-(pyridin-4-ylmethyl)-1H-pyrrole-2-carboxamide] | 5.75 | 1.18 | 3.64 | 7.10 | 6.07 | 5.97 | 13.2 | 6.83 | 1.9 | 2.22 | < 4.60 | 6.89 |  |  |  |  |  | 
6 | O=C1CCc2cc(N3CCC[C@@H]3c3csc(NC(=O)c4cccn4Cc4ccncc4)n3)ccc2N1 [Compound A75, (R)-N-(4-(1-(2-oxo-1,2,3,4-tetrahydroquinolin-6-yl)pyrrolidin-2-yl)thiazol-2-yl)-1-(pyridin-4-ylmethyl)-1H-pyrrole-2-carboxamide] | 6.60 | 0.87 | 3.74 | 8.60 | 0.05 | 7.15 | 28.4 | 8.09 | 3.2 | 6.4 | < 4.60 | 9.22 |  |  |  |  |  | 
7 | CN(C)C(=O)c1ccc(N2CCC[C@@H]2c2csc(NC(=O)c3cccn3Cc3ccncc3)n2)cc1 [Compound A18, (R)-N-(4-(1-(4-(dimethylcarbamoyl)phenyl)pyrrolidin-2-yl)thiazol-2-yl)-1-(pyridin-4-ylmethyl)-1H-pyrrole-2-carboxamide] | 5.80 | 0.08 | 3.75 | 7.19 | 0.17 | 5.99 | 15.9 | 6.84 | 2.3 | 0.05 | < 4.60 | 6.96 |  |  |  |  |  | 
8 | Cc1ccc(/C=C/c2csc(NC(=O)c3cccn3Cc3ccnc(F)c3)n2)nc1F [Compound B49, (E)-N-(4-(2-(6-fluoro-5-methylpyridin-2-yl)vinyl)thiazol-2-yl)-1-((2-fluoropyridin-4-yl)methyl)-1H-pyrrole-2-carboxamide] | 4.95 | 1.51 | 12.5 | 7.56 | 4.13 | 5.60 | 91.4 | 5.90 | 46 | 1.53 | < 4.72 | 6.88 |  |  |  |  |  | 
9 | CC(=O)N[C@@H](C)c1ccc(N2CCC[C@@H]2c2csc(NC(=O)c3cccn3Cc3ccnc(F)c3)n2)cc1 [Compound A69, N-(4-((R)-1-(4-((S)-1-acetamidoethyl)phenyl)pyrrolidin-2-yl)thiazol-2-yl)-1-((2-fluoropyridin-4-yl)methyl)-1H-pyrrole-2-carboxamide] | 5.50 | 0.47 | 12.1 | 7.28 | 35 | 6.48 | 6.35 | 6.94 | 2.2 | 1.43 | < 4.60 | 7.22 |  |  |  |  |  | 
